Reference: patent US20230098403A1, “MAGNETIC RESONANCE IMAGING CONTRAST AGENT, PREPARATION METHOD AND USE THEREOF” (GUANGZHOU PINGLAN MEDICAL TECHNOLOGY CO., LTD., priority 2020, published 2023)
Several values for one entry are separate records, joined by “and”; a condition that tells them apart may be missing. Identical values can stand only once.

Columns and labels:
[1] = Pharmacokinetics study, Mn^2+ in whole blood by ICP-MS; type: in vivo; conditions: SD rats, caudal vein 0.1 mmol/kg, non-compartment model
Protocol: Totally 8 SD rats, 3 female rats and 5 male rats, weighed 220 to 240 g, were anesthetized by intraperitoneal injection of 3% pentobarbital sodium (50 mg/kg) and fixed in supine position, followed by removing neck hair and disinfecting routinely for later use.
Catheterization of left carotid artery comprises steps as follows: making a 20 mm longitudinal incision from the 3 mm left side of the median cervical line (the line from the sternum to the mandible) and 7 mm above the sternum; dissecting the skin to expose the subcutaneous tissue, and performing a blunt layer-by-layer dissection until the carotid artery was visualized; separating […] from its accompanied veins by blunt dissection; ligating distal portion and proximal portion of the heart respectively, wherein the distance between the nodes was 2.5-3.5 cm; inserting an indwelling needle into the artery near the node at the distal portion of the heart and fixing with a hemostatic clip, taking the needle out and releasing the node at the proximal portion of the heart; and injecting heparin lithium (150 μg/kg) to perform systemic heparinization in body.
Caudal vein was rapidly injected (<5s) with KBR0826 solution (0.05 mmol/mL) at a dose of 0.1 mmol/kg. Before injection and within 1 min, 2 min, 3 min, 5 min, 8 min, 13 min, 20 min, 30 min, and 50 min after the injection, 0.1 mL of carotid blood was respectively collected and placed in a 0.5 mL EP tube and stored at −20° C.
ICP-MS was configured with a power of 1150 W, a flow rate of argon for atomization gas of 0.95 L·min^−1, a flow rate of argon for auxiliary gas of 1.2 L·min^−1, a flow rate of argon for plasma gas of 18 L·min^−1, pump speed of 20 r·min^−1, an analytic mode being standard mode, repetition sampling in triple.
A set of standard solution was prepared with standard reagents (PerkinElmer, […] (1000 ppb): Ag, Al, As, Cs, Cu, Sr, Se, Mn, etc.) at different concentrations, i.e., at 1.0 ppb, 10 ppb, 50 ppb, 100 ppb, 200 ppb and 1000 ppb, to establish a standard curve (as shown in FIG. 3), and R^2 for the linear equation was >0.9999.
20 μL of sample (whole blood) was collected and diluted to 6 to 10 mL with 1% HNO3, such that the concentration of Mn^2+ ranged from 1 ppb to 100 ppb; sample IDs were generated and then the samples were measured, and Mn^2+ concentrations of the sample solutions were calculated according to the response intensity and the standard curve.
PKSolver 2.0 was used for calculating relevant pharmacokinetic parameters.

[2] = Relaxivity measurement (T1 and T2 relaxation, MRI Contrast Agent Analyzer); type: physicochemical; conditions: 0.5 T, 32° C., pH=7.4
Protocol: The method for measuring the relaxivity comprises the following steps: preparing contrast agent solutions in a gradient concentration (0.054, 0.109, 0.224, 0.451, 0.906 mM, in Hepes buffer, pH=7.4), and measuring the contrast agent samples at different concentrations by Niumag PQ001 MRI Contrast Agent Analyzer (0.5±0.08T, main frequency of instrument: 21.3 MHz; at 32° C.) to respectively obtain their T1 and T2 relaxation time, and then performing a linear fitting between the relaxation rate, Ri (Ri=1/Ti, i=1, 2) and the contrast agent concentrations to obtain a slope, i.e., relaxivity (ri, i=1, 2). Relaxivity reflects the ability of magnetic resonance imaging contrast agent to alter the relaxation time of water proton and is an important parameter to evaluate the quality of contrast agent. Relaxivity (ri, i=1, 2) is defined as the alteration in the relaxation rate of water proton (1/Ti, i=1, 2) by unit concentration of MRI Contrast agent (mmol/L).

O=C([O-])CN(CP(=O)([O-])O)C1CCCCC1N(CC(=O)[O-])CP(=O)([O-])O.[Mn+2].[Na+].[Na+] (stereo not drawn) [KBR0826]
AUC0-inf [1]: 734.55 ± 333.06 mg·min/L
AUC0-t [1]: 712.59 ± 325.70 mg·min/L
AUMC0-inf [1]: 8419.63 ± 9547.34 mg/L · min^2
C0 [1]: 616.61 ± 568.85 µg/mL
MRT0-inf [1]: 11.26 ± 8.93 min
V [1]: 0.38 ± 0.45 L/kg
Vss [1]: 0.17 ± 0.30 L/kg
t1/2 (plasma half-life) [1]: 23 min and 22.87 ± 13.04 min
relaxivity r1 [2]: 3.12 mmol⁻¹ s⁻¹
